Key:
[1] = biological target: T1, MLC kinase (myosin light-chain kinase) (Gallus gallus, UniProt P11799); assay: inhibition of MLC kinase, in vitro enzyme test (32P phosphate incorporation); assay type: biochemical, chicken (stomach); conditions: for IC50: 1 nM MLC kinase, 250 μM ATP, pH 7.2, 20 minutes at 30° C., read-out: inhibition of the protein kinases, MLC-kinase IC50; for ratio of IC50 C-kinase/IC50 MLC-kinase: selectivity factor calculated from the IC50 values
T1 construct: MLC kinase was purified from chicken stomach; from tissue; host or cells: chicken stomach (gizzard smooth muscle)
T1 sequence (P11799 935-1906): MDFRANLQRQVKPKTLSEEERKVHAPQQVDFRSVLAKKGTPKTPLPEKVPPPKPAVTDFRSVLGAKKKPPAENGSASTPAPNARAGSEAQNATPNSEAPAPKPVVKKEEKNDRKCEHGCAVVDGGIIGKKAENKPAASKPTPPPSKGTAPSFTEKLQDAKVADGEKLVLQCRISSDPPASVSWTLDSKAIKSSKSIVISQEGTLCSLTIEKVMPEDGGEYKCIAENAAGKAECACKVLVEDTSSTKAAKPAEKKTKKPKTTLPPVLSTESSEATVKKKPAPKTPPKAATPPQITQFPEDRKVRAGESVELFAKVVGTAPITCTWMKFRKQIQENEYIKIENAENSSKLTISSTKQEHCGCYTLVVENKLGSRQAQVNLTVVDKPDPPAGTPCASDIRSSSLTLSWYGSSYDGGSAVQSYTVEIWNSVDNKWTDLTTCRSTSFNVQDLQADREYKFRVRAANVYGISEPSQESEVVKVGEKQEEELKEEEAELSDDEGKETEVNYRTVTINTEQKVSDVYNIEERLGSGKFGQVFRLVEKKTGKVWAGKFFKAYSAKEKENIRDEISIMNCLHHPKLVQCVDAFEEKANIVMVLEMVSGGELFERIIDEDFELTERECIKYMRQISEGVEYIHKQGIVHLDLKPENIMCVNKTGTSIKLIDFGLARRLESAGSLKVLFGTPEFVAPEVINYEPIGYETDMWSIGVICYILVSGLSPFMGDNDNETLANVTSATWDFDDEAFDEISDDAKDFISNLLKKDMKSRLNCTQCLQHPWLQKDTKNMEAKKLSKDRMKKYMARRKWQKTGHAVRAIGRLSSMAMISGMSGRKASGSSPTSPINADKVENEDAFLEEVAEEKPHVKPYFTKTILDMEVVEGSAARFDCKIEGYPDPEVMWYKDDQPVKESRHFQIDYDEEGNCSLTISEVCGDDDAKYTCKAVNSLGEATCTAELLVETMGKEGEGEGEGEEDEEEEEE
Experimental: Inhibition of the enzyme MLC kinase (EC 3.6.1.3; kinase of the light myosin chain; myosin light-chain kinase).
The inhibition of MLC kinase was measured in an in vitro enzyme test.
The reaction was initiated by the addition of 1 nM MLC kinase. After incubation for 20 minutes at 30° C., the reaction was stopped with TCA and the samples then filtered off. The phosphate incorporation took place by means of Cerenkov counting of the filter.

protein kinase C = assay: inhibition of protein kinase C, enzyme test; assay type: biochemical; conditions: read-out: inhibition of the protein kinases, C-kinase IC50
Experimental: In order to ascertain whether it is a question of a selective inhibition of MLC kinase, the compounds were also investigated in other enzyme tests for protein kinase, including tests for protein kinase C. The results from the PKC test are also given in the following Table I. Furthermore, the Table contains selectivity factors which were calculated by the determination of the ratios of the IC50 values.

Molecule | IC50 [1] [µM] | ratio of IC50 C-kinase/IC50 MLC-kinase [1] | IC50 (protein kinase C) [µM]
12-(3-dimethylaminopropyl)-6,7,12,13-tetrahydro-3(9)-hydroxy-9(3)-methoxy- 5,7-dioxo-5H-indolo[2,3-a]pyrrolo[3,4-c]carbazole [Example 2d] | 0.016 | 2.4 | 0.038
CCN(CC)CC(O)Cn1c2ccccc2c2c3c(c4c5ccccc5[nH]c4c21)C(=O)NC3=O (racemic) [Example 6, (±)-12-(3-Diethylamino-2-hydroxy-1-propyl)-6,7,12,13-tetrahydro-5,7-dioxo-5H-indolo[2,3-a]pyrrolo[3,4-c]-carbazole] | 0.17 | 2.9 | 0.5
CCN(CC)CC(O)Cn1c2ccccc2c2c3c(c4c5ccccc5n(C)c4c21)C(=O)NC3=O (racemic) [Example 10a, (±)-12-(3-diethylamino-2-hydroxy-1-propyl)-6,7,12,13-tetrahydro-13-methyl-5,7-dioxo-5H-indolo-[2,3-a]pyrrolo[3,4-c]carbazole] | 0.37 | 0.3 | 0.12
COc1ccc2c(c1)c1c3c(c4c5ccccc5n(C)c4c1n2CC(O)CN(C)C)C(=O)NC3=O (racemic) [Example 10b, (±)-13-(3-dimethylamino-2-hydroxy-1-propyl)-6,7,12,13-tetrahydro-3-methoxy-12-methyl-5,7-dioxo-5H-indolo[2,3-a]pyrrolo[3,4-c]carbazole] | 0.12 | 0.033 | 0.004
Cn1c2ccccc2c2c3c(c4c5ccccc5n(CCC#N)c4c21)C(=O)NC3=O [Example 1a, 12-(2-cyanoethyl)-6,7,12,13-tetrahydro-13-methyl-5,7-dioxo-5H-indolo[2,3-a]pyrrolo[3,4-c]carbazole] | 0.055 | 0.7 | 0.038
COc1ccc2c(c1)c1c3c(c4c5ccccc5n(CCC#N)c4c1n2C)C(=O)NC3=O [Example 1b, 12-(2-cyanoethyl)-6,7,12,13-tetrahydro-3-methoxy-13-methyl-5,7-dioxo-5H-indolo[2,3-a]pyrrolo[3,4-c]-carbazole] | 0.049 | 0.7 | 0.035
COc1ccc2c(c1)c1c3c(c4c5cc(OC)ccc5n(CCC#N)c4c1n2C)C(=O)NC3=O [Example 1c, 12-(2-cyanoethyl)-6,7,12,13-tetrahydro-3,9-dimethoxy-13-methyl-5,7-dioxo-5H-indolo[2,3-a]pyrrolo[3,4-c]-carbazole] | 0.18 | 0.1 | 0.019
CC(CC#N)n1c2ccccc2c2c3c(c4c5ccccc5n(C)c4c21)C(=O)NC3=O (stereo not drawn) [Example 1d, 12-(3-cyano-2-propyl)-6,7,12,13-tetrahydro-13-methyl-5,7-dioxo-5H-indolo[2,3-a]pyrrolo[3,4-c]carbazole] | 0.062 | 0.6 | 0.035
Cn1c2ccccc2c2c3c(c4c5ccccc5n(CC#N)c4c21)C(=O)NC3=O [Example 1e, 12-cyanomethyl-6,7,12,13-tetrahydro-13-methyl-5,7-dioxo-5H-indolo[2,3-a]pyrrolo[3,4-c]carbazole] | 0.017 | 0.8 | 0.014
Cn1c2ccccc2c2c3c(c4c5ccccc5n(CCCC#N)c4c21)C(=O)NC3=O [Example 1g, 12-(3-cyanopropyl)-6,7,12,13-tetrahydro-13-methyl-5,7-dioxo-5H-indolo[2,3-a]pyrrolo[3,4-c]carbazole] | 0.022 | 1.6 | 0.036
COc1ccc2c(c1)c1c3c(c4c5ccccc5n(CCCC#N)c4c1n2C)C(=O)NC3=O [Example 1h, 12-(3-cyanopropyl)-6,7,12,13-tetrahydro-3-methoxy-13-methyl-5,7-dioxo-5H-indolo[2,3-a]pyrrolo[3,4-c]-carbazole] | 0.024 | 1 | 0.024
